What all share (format): in vitro ADME
Data set [1] deals with CYP3A. Put plainly: IC50 of vortioxetine on CYP3A (midazolam) in RLMs. The settings on record: rat, rat liver microsomes, probe midazolam. On the procedure:
(§1) The components of the incubation system were as follows: 0.20 mg/mL HLMs or 0.20 mg/mL RLMs, 0.1 M Tris-HCl, vortioxetine, and the probe substrates of each enzyme. In the study of Km’s (Michaelis–Menten constant) experiment, midazolam (1, 2, 5, 10, 20, 50 and 100 μM in HLMs and RLMs) corresponded to CYP3A4/3A; bupropion (10, 20, 50, 100, 200, 500, 1,000 and 2000 μM in HLMs; 1, 2, 5, 10, 20, 50, 100 and 200 μM in RLMs) corresponded to CYP2B6/2B; amodiaquine (5, 10, 20, 50, 100 and 200 μM in HLMs; 10, 20, 50, 100, 200, 500 μM in RLMs) corresponded to CYP2C8/CYP2C-1; losartan (1, 2, 5, 10, 20, 50, 100, 200 μM in HLMs; 10, 20, 50, 100, 200, 500 and 1,000 μM in RLMs) corresponded to CYP2C9/CYP2C-2; mephenytoin (20, 50, 100, 200, 500 and 1,000 μM in HLMs; 5, 10, 20, 50, 100, 200, 500 and 1,000 μM in RLMs) corresponded to CYP2C19/CYP2C-3; and dextromethorphan (1, 2, 5, 10, 20, 50 and 100 μM in HLMs and RLMs) corresponded to CYP2D6/CYP2D. […]
(§2) All experiments results were detected by UPLC-MS/MS, which equipped with a Waters Acquity UPLC system (Milford, MA, United States) and a Waters Xevo TQ-S triple quadrupole tandem mass spectrometer with an electrospray ionization source (Milford, MA, United States). […]
(§3) IC50 values and enzyme kinetic parameters were calculated by Graphpad Prism 6.0 (GraphPad software Inc., CA, United States). […] Data for each experiment were expressed as mean ± SD (n = 3).
On the technique in general: Liver microsomes are vesicles of endoplasmic reticulum, rich in cytochrome P450 enzymes.

Data set [2] addresses CYP3A4 (Homo sapiens, UniProt P08684). Nature of the data set: IC50 of vortioxetine on CYP3A4 (midazolam) in HLMs. Also on record: 0.20 mg/mL HLMs; from tissue; host or cells: human liver microsomes. On the procedure: as §1, §2, §3
In data set [3] the target is T1, CYP2D6 (Homo sapiens, UniProt P10635). Nature of the data set: IC50 of vortioxetine on CYP2D6 (dextromethorphan) in HLMs. Also on record: 0.20 mg/mL HLMs; from tissue; host or cells: human liver microsomes. On the procedure: as §1, §2, §3
Data set [4] has as its system CYP2D. Nature of the data set: IC50-shift experiment, CYP2D in RLMs. Particulars: rat, rat liver microsomes, probe dextromethorphan; for IC50 at 30 min: dextromethorphan 20 μM. On the procedure: as §1, with “CYP2D6/CYP2D. After 5.0 min of preincubation in the shaking water bath, the reaction was started with the addition of 1.0 mM NADPH. The incubated temperature at 37°C for 30 min. After the incubation, the enzyme reaction was stopped by cooling at −80°C, and 200 μL of acetonitrile and 20 μL of internal standard diazepam (200 ng/mL) were added for protein precipitation.” for “CYP2D6/CYP2D.”
(§4) IC50-shift was used to investigate whether the drug produced time-dependent inhibition (TDI) of the enzyme. […] During the experiment, the individual substrates midazolam (4 μM), bupropion (40 μM), amodiaquine (3 μM), losartan (8 μM), mephenytoin (90 μM), and dextromethorphan (10 μM) were determined with vortioxetine IC50-shift in HLMs. […]
as §2, §3

Data set [5] has as its system CYP2B. Nature of the data set: IC50-shift experiment, CYP2B in RLMs. Particulars: rat, rat liver microsomes, probe bupropion; for IC50 at 30 min: bupropion 20 μM.
Data set [6] has as its target T1, CYP2D6. Nature of the data set: IC50-shift experiment, CYP2D6 in HLMs. Particulars: for IC50: dextromethorphan 10 μM. Also on record: 0.20 mg/mL HLMs or 0.20 mg/mL RLMs; from tissue; host or cells: human liver microsomes. On the procedure:
as §1, with “CYP2D6/CYP2D. After 5.0 min of preincubation in the shaking water bath, the reaction was started with the addition of 1.0 mM NADPH. The incubated temperature at 37°C for 30 min. After the incubation, the enzyme reaction was stopped by cooling at −80°C, and 200 μL of acetonitrile and 20 μL of internal standard diazepam (200 ng/mL) were added for protein precipitation.” for “CYP2D6/CYP2D.”
as §4, §2, §3

For data set [7], the target named is CYP2C9 (Homo sapiens, UniProt P11712). Nature of the data set: IC50-shift experiment, CYP2C9 in HLMs. On the set-up: 0.20 mg/mL HLMs or 0.20 mg/mL RLMs; from tissue; host or cells: human liver microsomes. Particulars: for IC50: losartan 8 μM. On the procedure: as §1, with “CYP2D6/CYP2D. After 5.0 min of preincubation in the shaking water bath, the reaction was started with the addition of 1.0 mM NADPH. The incubated temperature at 37°C for 30 min. After the incubation, the enzyme reaction was stopped by cooling at −80°C, and 200 μL of acetonitrile and 20 μL of internal standard diazepam (200 ng/mL) were added for protein precipitation.” for “CYP2D6/CYP2D.”
as §4, §2, §3

The mark [8] stands for this setting: inhibitory effect (strength judged by IC50), HLMs.
The mark [9] stands for this setting: 30 min preincubation with 1.0 mM NADPH.
Setting [10] is: 30 min preincubation without NADPH.
[11] abbreviates: ratio IC50 (−) NADPH to IC50 (+) NADPH, read-out: IC50 fold shift.

Read-outs that look alike come from different tables or passages of the source.

T1 sequence (P10635 whole entry): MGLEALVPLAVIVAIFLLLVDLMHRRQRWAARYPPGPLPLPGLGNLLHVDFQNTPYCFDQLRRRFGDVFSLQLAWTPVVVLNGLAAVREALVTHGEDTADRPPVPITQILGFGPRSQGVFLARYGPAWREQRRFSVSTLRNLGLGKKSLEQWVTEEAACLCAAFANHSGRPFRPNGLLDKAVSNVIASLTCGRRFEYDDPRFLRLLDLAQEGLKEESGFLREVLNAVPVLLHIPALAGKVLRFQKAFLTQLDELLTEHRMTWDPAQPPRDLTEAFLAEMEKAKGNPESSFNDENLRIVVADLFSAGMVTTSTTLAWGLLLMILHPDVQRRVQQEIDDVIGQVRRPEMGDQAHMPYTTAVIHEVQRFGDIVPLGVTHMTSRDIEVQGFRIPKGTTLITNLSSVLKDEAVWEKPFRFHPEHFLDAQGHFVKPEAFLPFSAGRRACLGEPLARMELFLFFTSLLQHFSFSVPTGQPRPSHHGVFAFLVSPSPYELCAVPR
Sequence of CYP2C9 (P11712 whole entry): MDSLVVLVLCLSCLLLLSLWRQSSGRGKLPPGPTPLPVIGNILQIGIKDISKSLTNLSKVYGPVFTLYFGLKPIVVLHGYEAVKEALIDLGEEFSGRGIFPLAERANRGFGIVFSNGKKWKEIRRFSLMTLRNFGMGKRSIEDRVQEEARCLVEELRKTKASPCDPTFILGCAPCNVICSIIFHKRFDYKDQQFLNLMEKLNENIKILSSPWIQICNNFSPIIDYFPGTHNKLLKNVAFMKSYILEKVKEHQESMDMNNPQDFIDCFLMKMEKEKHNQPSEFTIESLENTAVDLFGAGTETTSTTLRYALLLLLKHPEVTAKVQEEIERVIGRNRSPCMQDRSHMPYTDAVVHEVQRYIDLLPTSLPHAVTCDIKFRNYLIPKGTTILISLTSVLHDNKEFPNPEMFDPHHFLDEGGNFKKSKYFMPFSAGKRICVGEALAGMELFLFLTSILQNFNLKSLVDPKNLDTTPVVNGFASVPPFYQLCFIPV
Sequence of CYP3A4 (P08684 whole entry): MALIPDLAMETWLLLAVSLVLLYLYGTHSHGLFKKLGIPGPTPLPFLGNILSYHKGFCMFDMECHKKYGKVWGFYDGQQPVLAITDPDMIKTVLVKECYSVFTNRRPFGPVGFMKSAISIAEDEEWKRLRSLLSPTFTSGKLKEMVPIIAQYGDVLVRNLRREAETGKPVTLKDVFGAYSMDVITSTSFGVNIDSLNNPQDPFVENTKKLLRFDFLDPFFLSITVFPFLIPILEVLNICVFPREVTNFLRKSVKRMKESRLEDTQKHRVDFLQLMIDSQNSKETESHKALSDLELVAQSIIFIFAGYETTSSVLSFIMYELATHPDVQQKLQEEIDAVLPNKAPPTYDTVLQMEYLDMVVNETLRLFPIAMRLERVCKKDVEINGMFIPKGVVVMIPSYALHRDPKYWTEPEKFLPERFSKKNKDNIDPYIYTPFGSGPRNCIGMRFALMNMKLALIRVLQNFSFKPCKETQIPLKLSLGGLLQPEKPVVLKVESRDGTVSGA

With `Cc1ccc(Sc2ccccc2N2CCNCC2)c(C)c1` [vortioxetine], the IC50 at 30 min in data set [1] (RLMs 0.20 mg/mL, midazolam at Km, 37°C, 30 min, read-out: IC50) is 16.4 µM; in data set [1] (inhibitory effect (strength judged by IC50), RLMs), > 10 µM; in data set [4] (setting [9]) it was 7.38 µM; in data set [4] (setting [10]), 3.35 µM; in data set [5] (setting [9]), 5.3 µM; in data set [5] (setting [10]), 10.1 µM. Further, the IC50 in data set [2] (HLMs 0.20 mg/mL, midazolam at Km, 37°C, 30 min, read-out: IC50) was 9.31 µM; in data set [2] (setting [8]) it was 1 to 10 µM; in data set [3] (HLMs 0.20 mg/mL, dextromethorphan at Km, 37°C, 30 min, read-out: IC50) it was 17.9 µM; in data set [3] (setting [8]) it was > 10 µM; in data set [6] (setting [9]), 18.4 µM; in data set [6] (setting [10]), 19.4 µM. Further, the values for the IC50 in data set [7] (setting [9]) and in data set [7] (setting [10]) were 16.7 µM and 18.6 µM, respectively. Also, the IC50 shift at 30 min in data set [4] (setting [11]) was determined as 0.45; in data set [5] (setting [11]), 1.91; in data set [6] (human, human liver microsomes, probe dextromethorphan (10 μM), ratio IC50 (−) NADPH to IC50 (+) NADPH, read-out: IC50 fold shift) it was 1.06; in data set [7] (human, human liver microsomes, probe losartan (8 μM), ratio IC50 (−) NADPH to IC50 (+) NADPH, read-out: IC50 fold shift) it was 1.11.

In general, IC50 refers to the concentration that inhibits the measured activity by half.

The values above are taken from publication PMC10544575, “Inhibitory mechanism of vortioxetine on CYP450 enzymes in human and rat liver microsomes” (Frontiers in Pharmacology, 2023).
